US20070116823A1, “HIGH-POTENCY SWEETENER FOR HYDRATION AND SWEETENED HYDRATION COMPOSITION” (THE COCA-COLA COMPANY, priority 2005, published 2007)

Columns and labels:
[1] = Rate of dissolution of rebaudioside A forms in H2O at 25° C.; assay type: physicochemical; details: in words
[2] = test system: panel of experts in the sensory evaluation of foods and beverages; experiment: Sensory evaluation of sweetness linger by expert panel; assay type: in vivo; details: for Sweetness linger / Sweetness linger rating: scale 0=no to 5=high sweetness linger; for Sweetness Linger rating as defined by the protocol: reference points of the scale, REBA control sample 500 ppm
Method: Sensory evaluation of the samples prepared in Example Set G was carried out under the following protocol, similar to that described hereinabove. In this test protocol, none of the samples were swallowed. All samples were expectorated and the mouth was rinsed with water after the tasting. Immediately upon sensing maximal sweetness, the sample was expectorated, the mouth was rinsed with water and the rate of sweetness decay (“Sweetness Linger”) was measured, where attention was focused on the sweetness 3-4 min after the water rinse. After sample tasting was complete, a salty oyster cracker was chewed followed by a water rinse, and at least 5 minutes followed before tasting the next sample. The sweetness linger was rated by a panel of experts in the sensory evaluation of foods and beverages using the following scale: 0=no sweetness linger, 1=very slight sweetness linger, 2=slight sweetness linger, 3=moderate sweetness linger, 4=moderately high sweetness linger, 5=high sweetness linger.
The “Sweetness Linger” rating for sucrose observed by this protocol is defined as 0. The Sweetness Linger of a 500 ppm of REBA control sample is defined as 5. Experimental samples were tasted by the same protocol, always allowing sufficient time between samples to ensure re-equilibration of the sensory system. Re-tasting of control samples during the course of the experiment was allowed and encouraged.
The comparison taste test was performed between two controls and addition of sweet taste improving additive on the onset and/or sweetness linger.
Sweet taste improving compositions were combined with a REBA solution to determine their effect on sweetness linger. Screening of the initial sample, or further dilutions, allowed identification of concentrations which were just above-threshold, herein defined as “near-threshold concentrations.” The near-threshold additive concentrations, a 6- to 100-fold higher higher additive concentration (depending on the off-taste intensity), and a mid-level additive concentration (halfway between the near-threshold and higher additive concentration) were evaluated to determine the effect on sweetness linger of a REBA solution.
Formulations of a 500 ppm REBA in a phosphoric acid solution (75%) at a pH of 2.5 with phosphoric acid or a pH of 3.1 with citric acid and potassium citrate were prepared prior to the addition of the additives at the three levels of concentration.
\Sensory evaluation using the protocol described in Example Set C then was used to evaluate the sweetness linger of the REBA solutions.

Rate of dissolution in H2O at 25° C. [1] | Compound | Sweetness Linger rating as defined by the protocol [2] | also measured
Very low | rebaudioside A [Form 1] |  | 
 | rebaudioside A | 5 | Sweetness linger ([2]; Example Set G: 400 ppm REBA in citric acid/potassium citrate composition equivalent to diet lemon-lime beverage, with or without additive): 5; Sweetness linger ([2]; Example Set H: REBA in carbon-treated water, phosphoric acid (75%) to pH 2.4-2.5, with or without additive): 5
High | rebaudioside A [Form 4] |  | 
High | rebaudioside A [Form 3] |  | 
Intermediate | rebaudioside A [Form 2] |  | 
 | OC[C@H]1O[C@@](CO)(O[C@H]2O[C@H](CO)[C@@H](O)[C@H](O)[C@H]2O)[C@@H](O)[C@@H]1O [sucrose] | 0 | Sweetness linger rating ([2]; Set G control: 8 g of sugar in 100 ml of citrate buffer): 0; Sweetness linger rating ([2]; Set H control: 10 g of sugar in 100 ml carbon treated water, phosphoric acid to pH 2.4-2.5): 0
